Data as given in patent publication US12359176B2, “Engineered cells for production of indole-derivatives” (priority 2019, dated 2025).

What was measured:
Type in all cases: cell-based
[1] = tested on: E. coli Keio strains (single gene deleted strains); experiment: Growth Profiler growth test of transporter knockout (Keio) strains in 4 g/L melatonin; conditions: 4% ethanol, M9+0.2% glucose, vs BW25113 control strain
Procedure: (§1) The E. coli Keio strains (single gene deleted strains) were inoculated into 400 μl of M9+0.2% glucose media supplemented with kanamycin (50 μg/ml) in 96 deep well-plate picking the single colonies in LB-agar plates. Then, the plate was incubated at 30° C. with 300 rpm overnight (incubated for 18-24 h). The wild type strain E. coli BW25113 was used as a control. The following day, the saturated pre-cultures were diluted 100 fold into 300 μl of M9+0.2% glucose media (and antibiotics as required) supplemented with 4.4% of ethanol or 4.4% of ethanol and 4.4 g/L of melatonin so that the resulting final concentration would be 4% of ethanol and 4 g/L of melatonin in 96 well MTP plate. In case of the RBS library of yhjV, screening was performed at 5 g/L of melatonin instead of 4 g/L. Then, the culture plates were incubated in Growth Profiler (Enzyscreen, Heemstede, Netherland) at 30° C. and 250 RPM for 48 h with constant monitoring of the growth by taking picture in every 20 minutes interval. Using the GP software (GP960Viewer version 1.0.0.4, Enzyscreen, Heemstede, Netherland), the pictures data was converted into digital OD600 nm values and the growth curves were compared.
To identify any melatonin-specific native transporters in E. coli, an E. coli knockout library of 430 strains was screened, testing cell growth in the presence of 4 g/L (or 5 g/L) melatonin using the Growth Profiler. In such a screen, improved growth parameters (especially higher growth rate and/or lower lag time) compared to wild-type strain can be expected in case an importer is knocked-out, whereas decreased growth parameters can be expected in case an exporter is knocked-out (FIG. 3).
The growth curves of the five selected transporter candidate deletion strains (target candidate knocked-out Keio strains) were accessed after running growth profiler experiments as mentioned above.

[2] = tested on: E. coli; experiment: Growth of E. coli in the presence of melatonin
Procedure: FIG. 2. High-concentration of melatonin decreased cell growth of E. coli. Melatonin stock-solution was made by dissolving melatonin into 70% ethanol (ETOH). The growth medium was M9 supplemented with 0.2% glucose and 2 to 7 g/L melatonin. […] The ordinate scale reflects optical density.
as §1
In order to elucidate whether melatonin production at high titers is toxic to E. coli, we tested the growth of E. coli strain in the presence of different concentrations of melatonin. Melatonin was externally added into M9 medium supplemented with 0.2% glucose and the growth curves were monitored. […] Compared to the control, the biomass yield decreased ˜30% at 2 g/L melatonin, and further decreased about 30% at 7 g/l melatonin.

[3] = tested on: E. coli YhjV knockout (HMP3406_YhjV KO); experiment: Growth test of yhjV knockout strain in tryptophan; conditions: 1 mM tryptophan, M9 with 0.2% glucose, 30° C., 48 h
Procedure: This Example describes testing the influence of YhjV on the uptake of amino acids. The growth test was performed using M9 medium supplemented with 0.2% glucose and 1 mM tryptophan, as well as appropriate antibiotics (100 mg/L ampicillin or 50 mg/L kanamycin). The growth curves were monitored with Growth Profiler (Enzyscreen, Heemstede, Netherland) at 30° C. and 250 RPM for 48 h.
We first tested how YhjV transporter affects the growth of E. coli tryptophan. We followed the growth curves of E. coli wild type BW25113 (HMP0_wt), YhjV knockout (HMP3406_YhjV KO) and YhjV overexpression (HMP3405_YhjV O. E., made by transforming pHM635 into HMP0) in M9 medium containing 0.2% glucose supplemented with 1 mM tryptophan.

SMILES: COc1ccc2[nH]cc(CCNC(C)=O)c2c1 [melatonin]
- growth of acrB deletion strain [1]: no growth at all
- growth of argO deletion strain [1]: reduced growth rates
- growth of garP deletion strain [1]: longer lag time and reduced growth rate
- growth of lysP deletion strain [1]: reduced growth rates
- growth of yhjV deletion strain [1]: longer lag time and reduced growth rate
- biomass yield decrease compared to the control ([2]; 2 g/L melatonin, M9 medium with 0.2% glucose, control contains 4% ETOH): about 30%
- further biomass yield decrease ([2]; 7 g/l melatonin, M9 medium with 0.2% glucose, control contains 4% ETOH): about 30%
- effect on E. coli growth ([2]; high concentrations of melatonin (2 to 7 g/L), M9 with 0.2% glucose): inhibited E. coli growth

SMILES: N[C@@H](Cc1c[nH]c2ccccc12)C(=O)O [tryptophan, L-tryptophan]
- growth of YhjV knockout compared to the wild type [3]: much lower biomass yield
